From publication PMC9861858, “Stereoselective Synthesis and Antiproliferative Activities of Tetrafunctional Diterpene Steviol Derivatives” (International Journal of Molecular Sciences, 2023)
Values after ≈ are worked out from the molar mass of the structure shown. “Also recorded” adds a separate entry of the source.

What was measured:
SiHa cells = test: MTT antiproliferative assay, SiHa; format: cell-based, human; settings: for inhibition at 10 µM / inhibition at 30 µM: Homo sapiens, SiHa, 72 h, values <20% considered negligible, read-out: Growth inhibition (%) ± SEM, SiHa
How it was run: (§1)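 Cells grown in Eagle's minimal essential medium with 10% FBS at 37 °C, 5% CO2 were seeded at 5000/well, left overnight, then exposed to compounds at 10 μM and 30 μM for 72 h. Growth inhibition was read by MTT (4 h), formazan dissolved in DMSO, absorbance at 545 nm.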

MCF-7 cells = test: MTT antiproliferative assay, MCF-7; format: cell-based, human; settings: for inhibition at 10 µM / inhibition at 30 µM: Homo sapiens, 72 h, values <20% considered negligible, read-out: Growth inhibition (%) ± SEM, MCF-7; for inhibition at 10 µM: MCF7, 10 μM; for inhibition at 30 µM: MCF7, 30 μM; for Antiproliferative effect / selectivity on MCF-7, in words: 10 and 30 μM
How it was run: as §1

MDA-MB-231 cells = test: MTT antiproliferative assay, MDA-MB-231; format: cell-based, human; settings: for Antiproliferative effect / selectivity on MDA-MB-231, in words: 10 and 30 μM; for inhibition at 10 µM / inhibition at 30 µM: Homo sapiens, 72 h, values <20% considered negligible, read-out: Growth inhibition (%) ± SEM, MDA-MB-231; for inhibition at 10 µM: MDA-MB-231, 10 μM; for inhibition at 30 µM: MDA-MB-231, 30 μM
How it was run: as §1

A2780 cells = test: MTT antiproliferative assay, A2780; format: cell-based, human; settings: for inhibition at 10 µM / inhibition at 30 µM: Homo sapiens, 72 h, values <20% considered negligible, read-out: Growth inhibition (%) ± SEM, A2780; for inhibition at 10 µM: A2780, 10 μM; for inhibition at 30 µM: A2780, 30 μM
How it was run: as §1

NIH/3T3 fibroblasts = test: MTT assay on fibroblasts (selectivity); format: cell-based, murine; settings: Mus musculus, 72 h, values <20% considered negligible, read-out: Growth inhibition (%) ± SEM, NIH/3T3; for inhibition at 10 µM: NIH3T3, 10 μM; for inhibition at 30 µM: NIH3T3, 30 μM
How it was run: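 Cells seeded at 5000 cells/well, treated next day with compounds at 10 μM and 30 μM for 72 h at 37 °C, 5% CO2 in EMEM with 10% FBS. MTT added for 4 h, formazan dissolved in DMSO, absorbance read at 545 nm; cisplatin as reference.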

[1] = Kinetic aqueous solubility; format: physicochemical; settings: for solubility kinetic at 2 h: phosphate buffered saline with 5% DMSO, aqueous with cosolvent or surfactant or cyclodextrin, kinetic from dmso stock, after 2 h, at 37 °C in PBS, pH 7.4, 5% DMSO, target concentration 500 μM, mean ± S.E.M, n = 3; for Kinetic aqueous solubility, category in words: PBS pH 7.4, 37 °C, 2 h
How it was run: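 Kinetic solubility: filtrates quantified by HPLC-DAD-MS against 5–500 μM calibration, target concentration 500 μM. PAMPA-GI: pH 6.5 phosphate donor, pH 7.4 PBS/5% DMSO acceptor, phosphatidylcholine/cholesterol 2:1 in dodecane membrane, 4 h at 37 °C; Pe and membrane retention calculated from HPLC-DAD-MS concentrations.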

Structure (SMILES) | inhibition at 10 µM (SiHa cells) [%] | inhibition at 30 µM (SiHa cells) [%] | inhibition at 10 µM (MCF-7 cells) [%] | inhibition at 30 µM (MCF-7 cells) [%] | Antiproliferative effect / selectivity on MDA-MB-231, in words (MDA-MB-231 cells) | inhibition at 10 µM (MDA-MB-231 cells) [%] | inhibition at 30 µM (MDA-MB-231 cells) [%] | inhibition at 10 µM (A2780 cells) [%] | inhibition at 30 µM (A2780 cells) [%] | inhibition at 10 µM (NIH/3T3 fibroblasts) [%] | inhibition at 30 µM (NIH/3T3 fibroblasts) [%] | solubility kinetic at 2 h [1] [µM] | melting point [°C] | Antiproliferative effect / selectivity on MCF-7, in words (MCF-7 cells) | Antiproliferative effect on A2780, in words (A2780 cells; 10 and 30 μM) | Kinetic aqueous solubility, category in words [1] | Antiproliferative effect on SiHa, in words (SiHa cells; 10 and 30 μM)
COC(=O)[C@]1(C)CCC[C@@]2(C)C3CC[C@]4(O)C[C@@]3(CCC21)[C@@H](O)[C@]4(O)CN(C)Cc1ccccc1 (stereo partly drawn) [Compound 6, (4R,6aR,7R,8R,9S,11bS)-Methyl 8-((Benzyl(methyl)amino)methyl)-7,8,9-trihydroxy-4,11b-dimethyltetradecahydro-6a,9-methanocyclohepta[a]naphthalene-4-carboxylate] | < 20 | < 20 | < 20 | 51.7 ± 2.54 | slight selectivity | < 20 | 82.56 ± 0.69 | 25.7 ± 2.7 | 63.7 ± 1.98 | < 20 | 89.3 ± 2.62 | 114 ± 16 (≈ 55.5 µg/mL) | 162 to 166 | – | – | – | –
CC[C@@H](NC[C@@]1(O)[C@H](O)[C@@]23CCC4[C@@](C)(CCC[C@@]4(C)C(=O)OC)C2CC[C@]1(O)C3)c1ccccc1 (stereo partly drawn) [Compound 15, (4R,6aR,7R,8R,9S,11bS)-Methyl 7,8,9-Trihydroxy-4,11b-dimethyl-8-((((R)-1-phenylpropyl)amino)methyl)tetradecahydro-6a,9-methanocyclohepta[a]naphthalene-4-carboxylate] | 22.4 ± 1.42 | 95.67 ± 0.76 | 91 ± 1.52 | 96.47 ± 0.26 | decent activity; also recorded: smaller but also selective antiproliferative effect | 68.3 ± 2.86 | 95.63 ± 0.45 | 50 ± 2.99 | 96.64 ± 0.24 | 21 ± 0.96 | 94.23 ± 0.31 | 145 ± 28.2 (≈ 72.5 µg/mL) | 138 to 141 | strong and selective antiproliferative effect; also recorded: performed best | modest inhibition | – | –
COC(=O)[C@]1(C)CCC[C@@]2(C)C3CC[C@]4(O)C[C@@]3(CCC21)[C@@H](O)[C@]4(O)CNCc1ccccc1 (stereo partly drawn) [Compound 5, (4R,6aR,7R,8R,9S,11bS)-Methyl 8-((Benzylamino)methyl)-7,8,9-trihydroxy-4,11b-dimethyltetradecahydro-6a,9-methanocyclohepta[a]naphthalene-4-carboxylate] | < 20 | < 20 | 59.6 ± 2.73 | 96.42 ± 0.27 | – | 34.6 ± 2.98 | 95.8 ± 0.63 | 30.4 ± 2.48 | 97.15 ± 0.21 | < 20 | 101.1 ± 0.43 | 291 ± 35.5 (≈ 137 µg/mL) | 119 to 122 | – | – | – | –
CC[C@H](NC[C@@]1(O)[C@H](O)[C@@]23CCC4[C@@](C)(CCC[C@@]4(C)C(=O)OC)C2CC[C@]1(O)C3)c1ccccc1 (stereo partly drawn) [Compound 16, (4R,6aR,7R,8R,9S,11bS)-Methyl 7,8,9-Trihydroxy-4,11b-dimethyl-8-((((S)-1-phenylpropyl)amino)methyl)tetradecahydro-6a,9-methanocyclohepta[a]naphthalene-4-carboxylate] | < 20 | 96.73 ± 0.65 | 80.7 ± 2.37 | 97.1 ± 0.23 | – | 39.3 ± 1.99 | 96.65 ± 0.37 | 48.3 ± 2.17 | 96.99 ± 0.19 | < 20 | 95.12 ± 0.41 | 89.9 ± 8.5 (≈ 44.9 µg/mL) | 140 to 143 | higher selectivity; also recorded: performed best | – | moderate | –
COC(=O)[C@]1(C)CCC[C@@]2(C)C3CC[C@]4(O)C[C@@]3(CCC21)[C@@H](O)[C@]4(O)CNCc1ccc(F)cc1 (stereo partly drawn) [Compound 9, (4R,6aR,7R,8R,9S,11bS)-Methyl 8-(((4-Fluorobenzyl)amino)methyl)-7,8,9-trihydroxy-4,11b-dimethyltetradecahydro-6a,9-methanocyclohepta[a]naphthalene-4-carboxylate] | 54.6 ± 3.42 | 95.17 ± 0.37 | 96.4 ± 0.47 | 96.19 ± 0.65 | decent activity; also recorded: smaller but also selective antiproliferative effect | 83 ± 1.71 | 93.63 ± 0.36 | 45.6 ± 3.13 | 96.97 ± 0.29 | 25.9 ± 0.94 | 92.4 ± 1.01 | 42.1 ± 10.8 (≈ 20.6 µg/mL) | 195 to 197 | strong and selective antiproliferative effect; also recorded: performed best | – | moderate | modest inhibition
